From patent publication US20230341376A1, “SYSTEM, METHOD, AND COMPUTER-ACCESSIBLE MEDIUM FOR PHENOTYPING OF SINGLE CELLS WITH MULTIPLEXED VIBRATIONAL PROBES” (The Trustees of Columbia University in the City of New York, priority 2020, published 2023)

Legend:
Assay type in all cases: cell-based, human
[1] = test system: HeLa cells; experiment: Endocytic pathway profiling by Rdots of various sizes and colors, whole-cell Raman
Experimental: Upon exposure to mammalian cells, PS beads have been reported to enter cells through endocytosis, subsequently reaching the endosomal components. (See, e.g., Reference A40). Although some of the endocytic pathways have been well established, their exact biological roles are still under investigation. (See, e.g., References A41, A42). […] (See, e.g., Reference A43). Motivated by the independent size and color tunability of Rdots, cellular endocytosis pathways were profiled by incubating cells with Rdots of different sizes and colors. Rdots of 40 nm (Rdot2207), 70 nm (Rdot2118), and 120 nm (Rdot2092) in diameter were incubated with HeLa cells, and their Raman peaks are designed to be mutually resolvable.
For whole-cell Raman acquisition, the corresponding Raman intensity is proportional to the number of internalized Rdots, since the Raman intensity of Rdots remains stable after exposed to cellular microenvironments. We therefore quantified the peak intensity to profile the differential mechanism of Rdots internalization. To this end, cells were first pre-treated with one of three inhibitors, chlorpromazine (CPZ), nystatin, and cytochalasin D (Cyto D). CPZ is a cationic amphiphilic drug used to block clathrin-mediated endocytosis. (See, e.g., Reference A44). Nystatin can decompose cholesterol and inhibit caveolae-mediated endocytosis. (See, e.g., Reference A45). Cyto D inhibits the polymerization of actin filaments, which is required for receptor-mediated endocytosis in mammalian cells. (See, e.g., Reference A46). Additionally, cells were incubated at 4° C. to inhibit energy-dependent endocytosis. Then endocytosis was examined by the quantification of internalized Rdots at the single-cell level. A distinctive response of Rdots internalization was detected when treated with various inhibitors (FIGS. 16E-G), and the radar plot was presented to highlight the fold change after inhibition (FIG. 16H). […] (See, e.g., Reference A47). […] (See, e.g., References A48, A49).
FIGS. 16A-16M show exemplary illustration of an exemplary endocytic profiling assay by multi-color Rdots. […] The peak position of each Rdots was indicated by the arrow. Excitation: 532 nm (400 mW), acquisition time: 1 s. FIGS. 16B-16D show exemplary SRS images of cellular distribution for three endocytic Rdots, (B) 40 nm (C) 70 nm (D) 120 nm, scale bar: 10 µm. […] Excitation: 532 nm (400 mW), acquisition time: 1 s. FIGS. 16J-L show exemplary histogram showing the Raman intensity distribution of three endocytic Rdots uptake by HeLa, SKBR3, and COS-7 cells, FIG. 16J - 40 nm, FIG. 16K - 70 nm, and FIG. 16L - 120 nm.

[2] = test system: SKBR3 cells
Experimental: Metabolic probes including ^13C-EdU, 17-ODYA, and ^13C-AA were first supplemented to cell culture media for 60 hours to report various metabolic activities. For endocytic profiling, cells were subsequently incubated with three Rdots for 6 hours. Then, seven functionalized Rdots cocktail was pooled to stain cell surface proteins simultaneously. Prior to the spectral acquisition, AltQ2 probe was added to live cells. Single-cell Raman spectra of SKBR3 cells were acquired with 1 second acquisition time (see FIG. 17C). To decipher the contribution of individual Raman probes, the amide region (1500 cm^-1-1700 cm-^1) and cell-silent region (2000 cm^-1 - 2300 cm-^1) were linearly decomposed by using the reference spectral profiles of each probe (see FIG. 17D) (See, e.g., References A54-A56). The unmixing procedure was applied on single-cell Raman spectra (see FIG. 17E). […] (See, e.g., References A25, A26).
Cell-based profiling techniques are increasingly being used in drug discovery to monitor cell response upon drug treatment. (See, e.g., Reference A57). Optical techniques have unique advantages by allowing non-invasive, fast, and cost-effective readouts of individual living cells. (See, e.g., Reference A58). However, most high-content profiling assays have been primarily focusing on partial aspects of biological phenotypes. (See, e.g., Reference A59). Integration of different phenotypes will facilitate a more systematic understanding of the mechanism of drug candidates. (See, e.g., Reference A60). […] Trastuzumab is a HER2-targeted monoclonal antibody developed for clinical use in breast cancer patients. (See, e.g., Reference A61). Hydrogen peroxide (H2O2) is well known as a major member of reactive oxygen species (ROS). (See, e.g., Reference A62). Cycloheximide (CHX) exerts its action by inhibiting protein synthesis. (See, e.g., Reference A63). Cyto D causes the disruption of actin filaments and inhibition of actin polymerization. (See, e.g., Reference A64). Cisplatin is an inhibitor of DNA synthesis and cell growth. (See, e.g., Reference A65). After labeling with 14 Raman probes, single-cell Raman spectra of SKBR3 cells under treatment of five chemotherapy reagents, as well as untreated cells, were acquired through the automated whole-cell Raman micro-spectroscopy (see FIG. 18B).
SKBR3 cells were seeded onto 18 mm round quartz coverslips (Electron Microscopy Sciences, 103302-258) and then maintained in a culture environment for 48 hours to reach 90% confluence. Then the culture medium was replaced with ^13C-AA DMEM containing 200 µM 17-ODYA and 50 nM ^13C-EdU for 60 hours. For the drug testing samples, cells were subject to the drug treatment simultaneously (see Table 5 for specific drug concentration). Followed by three rounds of gentle washing of DPBS buffer, cells were subsequently incubated with three-colored endocytic Rdots at 1 nM in serum-free DMEM medium. 6 hours later, cell surface markers were stained with seven-colored Rdots at a concentration of 10 nM for 1 hour on ice. After that, cells were washed extensively with DPBS buffer with 5 mM MgCl2 and 1% BSA. Then cells were rinsed with DPBS buffer with 5 mM MgCl2 and 40 µM AltQ2 before mounting onto the microscope for Raman measurement. Spectral unmixing was performed through the Least Square Method (LSM).

[3] = test system: A375 cells; settings: for metabolic heterogeneity of lipid synthesis activity (Cv of single-cell d-PA metabolites): compared to untreated control group; for d-AA metabolites (protein synthesis activity): compared to untreated group
Experimental: Deuterated branch-chained amino acids and deuterated palmitic acid were supplemented to the cell culture media for 24 hours in order to probe the flux of protein and lipid synthesis. There can be several considerations for choosing these two types of probes. First, protein and lipids can be the major components of cell dry mass and their metabolism can be tightly regulated. Second, Raman spectra of the metabolites of these two deuterated probes in cells can be shifted to the cell silent region (e.g., 2000 — 2300 cm-1), which facilitated the detection with high sensitivity in a background-free manner. (See, e.g., FIG. 8). Third, compared to non-branch-chained counterparts, branch-chained amino acids were chosen for their narrower Raman spectra in order to have better spectral differences from that of deuterated palmitic acid. (See, e.g., Reference 23; and FIGS. 9). With the high-throughput instrumentation efforts described above, Raman spectra of these two types of probes can be acquired as quickly as 0.5 s for the entire cell with a satisfactory signal to noise ratio. (See, e.g., FIG. 1B).
Previously, the single-cell metabolic measurement has been challenging. Previously-used methods, such as mass spectrometry, can be difficult to reveal single-cell level heterogeneity. (See, e.g., Reference 24). […] However, due to the complex nature of the Raman spectra, it can be difficult to assign each Raman peak in the fingerprint region to a specific chemical compound. (See, e.g., Reference 25). In addition, when dimension reduction approaches such as PCA can be applied, which can be a common practice for data analysis, the physical meanings of the dimension reduced data can be further lost. On the other hand, since the metabolic probes used have distinctive spectra, it can be straightforward to decompose the spectra in order to obtain the concentration information of each individual probe. Here the exemplary MCR-ALS method, (see, e.g., References 26-28), was used to decompose the composite spectra into the pure spectra of the two metabolic probes, and concentration profiles could thereby be obtained.
To validate the ability to reveal metabolic activity, the exemplary MAP was applied to cultured cells treated with drugs that inhibit known metabolism. Five drugs were used as the reference: cycloheximide and blasticidin, both inhibit protein translation; Triacsin C can be an inhibitor of long fatty acyl CoA synthetase; etoposide and cisplatin can be DNA replication inhibitors. MAP probes and individual drugs were added to the seeded A375 cells and allowed to incubate for 24 hours, after which the cells were fixed and Raman spectra were taken from each individual of the fixed single cells. At least 3 batches of each drug were prepared to ensure model robustness and reproducibility. MCR-ALS on the Raman spectra taken with MAP were applied, from which the concentration profiles of d-AA metabolites and d-PA metabolites in every single cell were calculated. (See, e.g., FIG. 2A).
Since MAP measures the metabolic activity in single cells, its potential in quantitatively characterizing single-cell metabolic heterogeneity was determined. The coefficients of variation (“Cv”) of the single-cell d-PA metabolites and d-AA metabolites distribution were calculated from the metabolic inhibitor-treated cells. (See, e.g., Reference 32). The Cv value can be a normalized measure of the dispersion of the single-cell metabolic activity distribution and thus it can be used as a parameter to quantify the metabolic heterogeneity. […] (See, e.g., FIG. 2C). […] (See, e.g., FIG. 2D).
For MAP samples, cells were first seeded in a 24-well plate at 50% confluency with cell culture media and allowed to adhere overnight. Then the culture media was replaced with MAP culture media (see Table 1 below) and cells were further cultured in MAP media for 24 hours. […]

[4] = drug 60 hours, normalized to control

## C=C1[C@@H](C)[C@H]2[C@H](Cc3ccccc3)NC(=O)[C@]23[C@H](OC(C)=O)/C=C/[C@@](C)(O)C(=O)[C@@H](C)C/C=C/[C@H]3[C@@H]1O [Cyto D, cytochalasin D]
[1]; 60 hours
  cellular uptake of Rdots, incubation with inhibitor for 60 hours: markedly promoted
[1]; short-term incubation (6 hours per FIG. 16 legend)
  Rdots internalization, short-term inhibitor incubation: suppressed
[2]; drug 60 hours
  CD44 surface expression (Rdot2079-CD44): suppresses CD44 surface expression
  internalization of AltQ2: increased internalization
[2]; [4]
  DNA synthesis (13C-EdU probe): inhibits
  protein synthesis (13C-AA probe): inhibits
[2]; long-term drug treatment
  cellular internalization of Rdots: promote cellular internalization of Rdots

## OO [H2O2, Hydrogen peroxide]
[2]; drug 60 hours
  cellular internalization of Rdots of 70 nm: promoted
  cellular internalization of Rdots of 120 nm: promoted
  fatty acid turnover phenotype (17-ODYA probe): retarding their turnover rate
  internalization of AltQ2: increased internalization

## CN(CC[C@H](N)CC(=O)N[C@H]1C=C[C@H](n2ccc(N)nc2=O)O[C@@H]1C(=O)O)C(=N)N [blasticidin]
[3]; 24 hours drug
  metabolic heterogeneity of lipid synthesis activity (Cv of single-cell d-PA metabolites): did not alter the lipid synthesis activity distribution
[3]; drug plus MAP probes 24 hours
  d-AA metabolites (protein synthesis activity): significant decrease

## N.N.[Cl][Pt][Cl] [cisplatin]
[3]; 24 hours drug
  metabolic heterogeneity of lipid synthesis activity (Cv of single-cell d-PA metabolites): significantly decreased lipid synthesis heterogeneity

## C[C@@H]1C[C@@H]([C@H](O)CC2CC(=O)NC(=O)C2)C(=O)[C@@H](C)C1 [cycloheximide]
[3]; 24 hours drug
  metabolic heterogeneity of lipid synthesis activity (Cv of single-cell d-PA metabolites): did not alter the lipid synthesis activity distribution
[3]; drug plus MAP probes 24 hours
  d-AA metabolites (protein synthesis activity): significant decrease
[2]; drug 60 hours
  internalization of AltQ2: increased internalization
[2]; [4]
  DNA synthesis (13C-EdU probe): interfere with the process other than protein synthesis such as DNA synthesis

## COc1cc([C@@H]2c3cc4c(cc3[C@@H](O[C@@H]3O[C@@H]5CO[C@@H](C)O[C@H]5[C@H](O)[C@H]3O)[C@H]3COC(=O)[C@H]23)OCO4)cc(OC)c1O [etoposide]
[3]; 24 hours drug
  metabolic heterogeneity of lipid synthesis activity (Cv of single-cell d-PA metabolites): significantly decreased lipid synthesis heterogeneity

## C[C@@H]1[C@H](O)[C@@H](C)/C=C/C=C/CC/C=C/C=C/C=C/C=C/C(O[C@H]2O[C@H](C)[C@@H](O)[C@H](N)[C@@H]2O)CC2O[C@](O)(CC(O)C(O)CCC(O)CC(O)CC(O)CC(=O)O[C@H]1C)CC(O)C2C(=O)O (stereo partly drawn) [nystatin]
[1]; Rdot2092 (120 nm)
  internalization of 120 nm Rdots after inhibitor pre-treatment: inhibited
[1]; Rdot2118 (70 nm)
  internalization of 70 nm Rdots after inhibitor pre-treatment: inhibited
[1]; Rdot2207 (40 nm)
  internalization of 40 nm Rdots after inhibitor pre-treatment: unaltered or even slightly higher
[1]; single-cell Raman intensity of internalized Rdots
  Rdots uptake (40 nm, 70 nm and 120 nm Rdots) after inhibitor pre-treatment: decreased as size increases

## CCC/C=C/C/C=C/C=C/C=N/NN=O [triacsin C, Triacsin C]
[3]; 24 hours drug, compared to control group
  metabolic heterogeneity of protein synthesis activity (Cv of single-cell d-AA metabolites): unaltered Cv value
[3]; 24 hours drug
  metabolic heterogeneity of lipid synthesis activity (Cv of single-cell d-PA metabolites): did not change the metabolic heterogeneity
[3]; drug plus MAP probes 24 hours, compared to untreated cells
  d-PA metabolites (lipid synthesis activity): significant loss
[3]; drug plus MAP probes 24 hours
  d-AA metabolites (protein synthesis activity): decrease in protein synthesis activity
